Counter-ions that a name gives are not always drawn. Like-named read-outs stand apart in the source and are kept apart here.
Assays:
[1] = molecular target: T1, M1 (Homo sapiens, UniProt P11229); experiment: GPCR Calcium Flux assay (FLIPR tetra, Eurofins), M1; assay type: cell-based; conditions: for inhibition at 10 µM: single concentration of 10 uM, read-out: inhibition rate (%) M1; for IC50: 8 concentrations 10 to 0.0006 uM, read-out: 50% inhibitory concentration (IC50) M1
T1 sequence (P11229 1-460): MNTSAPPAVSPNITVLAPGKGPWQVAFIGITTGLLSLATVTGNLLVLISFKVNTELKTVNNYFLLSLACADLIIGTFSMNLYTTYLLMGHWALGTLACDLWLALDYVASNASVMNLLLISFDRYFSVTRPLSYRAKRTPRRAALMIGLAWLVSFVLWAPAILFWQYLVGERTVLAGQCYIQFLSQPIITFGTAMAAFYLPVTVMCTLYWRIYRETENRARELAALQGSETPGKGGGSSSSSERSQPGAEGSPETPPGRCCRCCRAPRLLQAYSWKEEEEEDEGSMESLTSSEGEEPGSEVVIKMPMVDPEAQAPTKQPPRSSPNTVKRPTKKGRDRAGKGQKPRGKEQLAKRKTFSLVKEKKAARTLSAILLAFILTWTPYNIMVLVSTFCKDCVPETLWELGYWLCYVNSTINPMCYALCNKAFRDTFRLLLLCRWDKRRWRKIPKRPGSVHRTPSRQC
Description: (§1) In order to confirm whether the compounds prepared in the above Examples act as an agonist or antagonist against GPCR Target, Calcium Flux assay was performed in an assay plate in which the compounds prepared in the Examples, vehicle controls, and reference compounds were added, using a Fluorometric imaging plate reader (FLIPR tetra) equipment.
(§2) Calcium Flux assay was evaluated by entrusting the GPCR profiler assay in Safety panel assays with Eurofins. By using the Fluo-8AM calcium dye, excitation was measured at a wavelength in the range of 470 to 495 nm and Emission was measured at a wavelength in the range of 515-575 nm. GPCR Assay Buffer for Calcium Flux assay was prepared by adding 20 mM of HEPES and 2.5 mM of Probenecid to Hanks Balanced Salt Solution (HBSS) to have pH 7.4. The Compounds of Examples for evaluation of the GPCR were diluted with DMSO at a concentration of 10 mM to make a stock and then prepared by diluting in the GPCR Assay Buffer at the concentration equivalent to three times the final concentration. First, for the evaluation of GPCRs, the inhibitory activity of the compounds of the Examples was evaluated at a single concentration of 10 uM, and then the respective selected targets were four fold-diluted from 10 uM to the low side to calculate 50% inhibitory concentration (IC50), prepared at the total 8 concentrations of 10, 2.5, 0.62, 0.15, 0.04, 0.01, 0.0024, 0.0006 uM, and Calcium Flux assay for GPCR was conducted. In order to evaluate the agonist and antagonist, % inhibition rate against GPCR activity before and after treatment of the compounds and the inhibitory activity of the compounds of the Examples were determined.
(§3) As a result, when the efficacy of […] and acetylcholine of the compounds prepared in the Examples was 100%, the inhibition rate (%) at a single concentration of 10 uM was evaluated and shown in Table 8.

[2] = molecular target: 5-HT2A (Homo sapiens, UniProt P28223); experiment: GPCR Calcium Flux assay (FLIPR tetra, Eurofins), 5-HT2A; assay type: cell-based; conditions: for inhibition at 10 µM: read-out: inhibition rate (%) 5-HT2A; for IC50: 8 concentrations 10 to 0.0006 uM, read-out: 50% inhibitory concentration (IC50) 5-HT2A
Description: as §1, §2, §3

[3] = molecular target: T2, proton pump (H+/K+-ATPase) (Sus scrofa, UniProt P19156); experiment: Inhibitory effects on proton pump (H+/K+-ATPase) activity, gastric vesicles, malachite green Pi detection; assay type: biochemical; conditions: hog gastric vesicles, 37° C. 40 minutes, pH 7.4
T2 construct: Gastric vesicles were prepared from a hog stomach; from tissue; host or cells: hog stomach (gastric vesicles, method of Rabon et al. 1988)
Description: The inhibitory effects on proton pump (H^+/K^+-ATPase) activity of the compounds prepared in Examples 2, 8 and 22 were measured as follows.
Gastric vesicles were prepared from a hog stomach in accordance with the known method (Edd C. Rabon et al., Preparation of Gastric H^+, K^+-ATPase., Methods in enzymology, vol. 157 Academic Press Inc., (1988), pp. 649-654). The protein contents of gastric vesicles thus prepared were quantitatively measured with Bicinchoninic Acid (BCA) kit (Thermo Co.).
80 ul of (a predetermined concentration of a test compound, 0.5% DMSO, 2.5 mM MgCl2, 12.5 mM KCl, 1.25 mM EDTA, 60 mM Tris-HCl, pH7.4) was added to each well of 96-well plate. 10 ul of the reaction solution containing gastric vesicles (60 mmol/l, Tris-HCl buffer solution, pH 7.4), and 10 ul of Tris buffer solution containing adenosine triphosphate (10 mM ATP, Tris-HCl buffer solution, pH 7.4) were added to each well and subjected to enzymatic reaction at 37° C. for 40 minutes. […] The amount of monophosphate (Pi) in the reaction solution was measured at 570 nm by using a microplate reader (FLUOstar Omega, BMG Co.). The inhibition rate (%) was measured from the activity value of the control group and the activity value of the test compound at various concentrations, and the concentration (IC50) that inhibits H^+/K^+-ATPase activity by 50% was calculated from each % inhibition value of the compounds using Logistic 4-parameter function of Sigmaplot8.0 program.

[4] = test system: basal gastric acid secretion in pylorus-ligated rats; experiment: Inhibitory effects on basal gastric acid secretion in pylorus-ligated rats (Shay's rat model); assay type: in vivo, Sprague Dawley (SD) rats; conditions: 2.0 mg/kg into the duodenum, 5 hours after ligation
Description: Inhibitory effects of the compounds prepared in Examples 2, 8 and 22 on basal gastric acid secretion were measured according to Shay's rat model (Shay, H., et al., 1945, gastroenterology, 5, p 43-61). Male Sprague Dawley (SD) rats (body weight 180-220 g) were divided into 4 groups (n=6-7) and fasted for 18 hours with free access to water. Under isoflurane anesthesia, the abdomens of the rats were incised and then the pylorus was ligated. Immediately after ligation, control group was administered with 2 mL/kg of 0.5% methyl cellulose (MC) aqueous solution into the duodenum, and the other groups were administered with test compounds suspended in 0.5% methyl cellulose (MC) aqueous solution at a dose of 2.0 mg/kg/2 ml. 5 hours after ligation, the test animals were sacrificed, and gastric contents were removed. The removed contents were centrifuged at 4,000×g for 10 minutes and the supernatant was separated to obtain the gastric juice. The amount and pH of the gastric juice were measured and the acidity in the gastric juice was measured by 0.1N NaOH volume (ueq/mL) required for the titration of gastric acid to pH 7.0. Total acid output was measured by multiplying the acidity of the gastric juice by the amount of the gastric juice. % inhibitory activity of test compounds were calculated according to the following equation, and the results are shown in Table 2. % inhibitory activity of test compound=[(total acid output of control group-total acid output of the group treated with test compounds)/total acid output of control group]×100 [Equation 1]

T2 sequence (P19156 2-1034 limits assumed): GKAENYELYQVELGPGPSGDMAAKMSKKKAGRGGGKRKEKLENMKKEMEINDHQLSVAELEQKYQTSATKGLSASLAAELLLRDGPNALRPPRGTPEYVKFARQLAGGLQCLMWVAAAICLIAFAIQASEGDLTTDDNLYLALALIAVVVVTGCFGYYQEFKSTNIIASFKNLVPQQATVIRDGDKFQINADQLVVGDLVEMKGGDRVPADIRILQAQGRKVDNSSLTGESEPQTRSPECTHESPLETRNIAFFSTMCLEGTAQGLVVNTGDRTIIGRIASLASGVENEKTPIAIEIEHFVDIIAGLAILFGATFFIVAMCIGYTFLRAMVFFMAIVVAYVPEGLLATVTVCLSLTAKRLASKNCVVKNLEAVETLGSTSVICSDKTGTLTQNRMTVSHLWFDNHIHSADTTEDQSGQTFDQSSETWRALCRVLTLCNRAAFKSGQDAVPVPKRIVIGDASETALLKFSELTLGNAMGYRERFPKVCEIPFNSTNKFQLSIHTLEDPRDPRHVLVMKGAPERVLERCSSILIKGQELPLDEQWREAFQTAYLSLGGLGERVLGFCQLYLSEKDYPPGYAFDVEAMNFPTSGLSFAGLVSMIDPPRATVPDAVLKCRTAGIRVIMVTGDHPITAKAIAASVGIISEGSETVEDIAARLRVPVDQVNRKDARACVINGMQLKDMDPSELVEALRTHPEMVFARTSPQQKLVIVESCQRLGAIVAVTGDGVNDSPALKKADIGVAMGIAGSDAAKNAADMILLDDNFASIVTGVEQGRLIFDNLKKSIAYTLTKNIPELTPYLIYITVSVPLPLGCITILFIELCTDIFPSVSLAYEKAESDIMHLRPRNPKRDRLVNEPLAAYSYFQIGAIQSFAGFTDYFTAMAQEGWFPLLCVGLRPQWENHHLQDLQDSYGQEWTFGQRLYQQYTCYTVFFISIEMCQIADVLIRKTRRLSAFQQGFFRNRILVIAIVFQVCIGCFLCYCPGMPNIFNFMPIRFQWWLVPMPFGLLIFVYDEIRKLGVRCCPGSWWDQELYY
T2 sequence (P18434 whole entry partner): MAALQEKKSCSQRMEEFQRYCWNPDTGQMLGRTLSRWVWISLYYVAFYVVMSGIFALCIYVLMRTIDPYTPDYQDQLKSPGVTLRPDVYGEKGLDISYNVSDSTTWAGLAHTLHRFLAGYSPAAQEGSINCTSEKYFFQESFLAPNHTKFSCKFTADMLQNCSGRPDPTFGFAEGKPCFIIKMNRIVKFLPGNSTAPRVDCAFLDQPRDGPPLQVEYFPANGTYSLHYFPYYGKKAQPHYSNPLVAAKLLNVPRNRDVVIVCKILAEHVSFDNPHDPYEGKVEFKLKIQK
Chain of 5-HT2A (P28223 whole entry): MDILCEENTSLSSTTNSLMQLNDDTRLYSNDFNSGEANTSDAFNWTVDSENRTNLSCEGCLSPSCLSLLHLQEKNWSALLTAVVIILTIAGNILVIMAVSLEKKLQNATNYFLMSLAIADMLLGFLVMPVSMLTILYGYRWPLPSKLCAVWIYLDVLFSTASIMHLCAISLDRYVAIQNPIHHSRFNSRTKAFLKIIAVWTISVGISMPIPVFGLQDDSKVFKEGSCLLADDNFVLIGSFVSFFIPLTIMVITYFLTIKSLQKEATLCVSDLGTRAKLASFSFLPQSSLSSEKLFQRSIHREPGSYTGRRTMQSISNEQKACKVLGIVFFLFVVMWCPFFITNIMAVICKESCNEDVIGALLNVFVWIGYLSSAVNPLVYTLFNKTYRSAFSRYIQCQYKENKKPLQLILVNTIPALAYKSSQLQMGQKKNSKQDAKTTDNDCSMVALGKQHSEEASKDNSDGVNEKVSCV

SMILES | inhibition at 10 µM [1] | inhibition at 10 µM [2] | IC50 [3] | % inhibitory activity (total acid output) [4] | IC50 [1] | IC50 [2] | inhibition at 10 µM ([2]; single concentration of 10 uM)
CNCc1cn(S(=O)(=O)c2cccc(C(F)(F)F)c2)c(-c2ccccc2F)c1OC [Example 2, hydrochloride] | 92.7% | 39.5% | 15 nM | 93.5% |  |  | 
CNCc1cn(S(=O)(=O)c2cccc(F)c2)c(-c2c(F)cc(F)cc2F)c1OC.Cl [Example 22, 1-(1-((3-fluorophenyl)sulfonyl)-4-methoxy-5-(2,4,6-trifluorophenyl)-1H-pyrrol-3-yl)-N-methylmethanamine hydrochloride] | 98% |  | 14 nM | 88.1% | 370 nM | 33 nM | 102%
CNCc1cn(S(=O)(=O)c2cccc(F)c2)c(-c2ccc(F)cc2F)c1OC.Cl [Example 8, 1-(5-(2,4-difluorophenyl)-1-((3-fluorophenyl)sulfonyl)-4-methoxy-1H-pyrrol-3-yl)-N-methylmethanamine hydrochloride] | 101% |  | 24 nM | 90.5% | 140 nM | 110 nM | 102%

Reference: patent US10100010B1, “4-methoxy pyrrole derivatives or salts thereof and pharmaceutical composition comprising the same” (Daewoong Pharmaceutical Co., Ltd., priority 2015, dated 2018)
